Measured values from patent US8278326B2, “Inhibitors of protein phosphatase-1 and uses thereof” (Howard University, priority 2008, dated 2012).

How the values were obtained:
[1] = tested on: Tat-induced HIV-1 transcription; test: Inhibition of Tat-induced HIV-1 transcription in 293T cells transfected with Tat-expressing vector, HIV-1 LTR-LacZ reporter and CMV-EGFP reporter; format: cell-based; conditions: for inhibition of Tat-induced HIV-1 transcription in 293T cells: in words
Procedure: (§1) The compounds from Table 2 were further evaluated using 293T cells transfected with Tat- and HIV-1 LTR-LacZ. […] Compounds 1H4, 3C8, and 1G3 were further evaluated in 293T cells transfected with Tat-expressing vector, HIV-1 LTR-LacZ reporter and CMV-EGFP reporter. Inhibitory properties of these compounds were evaluated using 293T cells transfected with Tat-expressing vector, HIV-1 LTR-LacZ reporter and CMV-EGFP reporter (Ammosova et al., 2005a). 293T cells were transfected with lipofectamine and then treated with each of the selected compounds for 18 hours. Then the cells were lysed and GFP and β-galactosidase activity was determined as we previously described (Ammosova et al., 2005a). Compound 1H4 was the most inhibitory with IC50=5 μM (FIG. 1B). […] Neither of the compounds was cytotoxic as determined by LDH assay (not shown).

[2] = tested on: recombinant pNL4-3 HIV-1; test: HIV-1 replication in MT4 cells infected with recombinant pNL4-3 HIV-1; format: cell-based; conditions: for inhibition of HIV-1 replication: MT4 cells, 1H4 at 10 μM or 25 μM (FIG. 2)
Procedure: HIV-1 replication is inhibited by a small molecular mimetic of QVCF peptide. The 1H4 compound was evaluated to determine whether it could inhibit HIV-1 replication. MT4 cells were infected with recombinant pNL4-3 HIV-1 and treated with different concentrations of 1H4 compound and as a control 1G3 compound.

[3] = target: recombinant CDK2/cyclin E (Homo sapiens, UniProt P24941); test: CDK2/cyclin E activity with histone H1; format: biochemical; conditions: increasing concentrations; histone H1 substrate
Procedure: (§2) Competition assays were performed with 4 nM PP1 in glycylglycine buffer. […] To analyze if 1H4 compound has an effect on the activity of CDK2 we incubated recombinant CDK2/cyclin E with histone H1 without or with the addition of increasing concentrations of 1H4.

[4] = tested on: 293T cells; test: Measurements of cytotoxicity, FIG. 1A; format: cell-based
Procedure: as §1

[5] = tested on: HIV-1 N155H; test: Inhibition of HIV-1 replication, N155H (Table 6); format: cell-based; conditions: read-out: N155H, IC50
Procedure: (§3) Compounds 1H4, 1E07, B03 and as a control 1G3 were analyzed for inhibition of HIV-1 replication and results are shown in Table 6.

[6] = tested on: HIV-1 transcription; test: Inhibition of transcription, FIG. 1A (293T cells transfected with Tat- and HIV-1 LTR-LacZ); format: cell-based
Procedure: as §1

[7] = tested on: PP1; test: Tat-PP1 competition assay (PP1 activity); format: biochemical; conditions: for effect on Tat-mediated inhibition of PP1: 50 μM compound, 4 nM PP1, glycylglycine buffer (FIG. 3A)
Procedure: as §2

[8] = tested on: HIV-1 IIIB; test: Inhibition of HIV-1 replication, IIIB (Table 6); format: cell-based; conditions: for inhibition of HIV-1 replication: Table 6 (IIIB, Q148R, N155H); for IC50: read-out: IIIB, IC50, HIV-1 replication
Procedure: as §3

[9] = tested on: HIV-1 Q148R; test: Inhibition of HIV-1 replication, Q148R (Table 6); format: cell-based; conditions: read-out: Q148R, IC50
Procedure: as §3

[10] = tested on: CEM GFP cells; test: Cytotoxicity in CEM cells by uptake of propidium iodide; format: cell-based; conditions: 1H4-based library
Procedure: (§4) Identification of the inhibitory compounds: The library was analyzed for the inhibition of HIV-1 transcription using reporter CEM GFP cells (courtesy of AIDS Reagents Program, NIH) that were infected with adenovirus expressing HIV-1 Tat activator protein (Ad-Tat) as previously described (Nekhai et al., 2007). Infection of CEM-GFP cells with Adeno-Tat induced HIV-1 transcription that was measured as gain of GFP fluorescence (Nekhai et al., 2007). Compounds were added at 25 μM concentration to the Ad-Tat-infected CEM-GFP cells and incubated for 24-48 hours. Cytotoxicity was evaluated by the uptake of propidium iodide (PI).
Identification of addition inhibitors. The 1H4 compound was used to create a second library of compounds that would have similar backbone as 1H4. This second library contained 143 compounds. These compounds were analyzed for the inhibition of HIV-1 transcription and toxicity in CEM T-cells and 293T cells similar as described above for the analysis of the first library.

[11] = tested on: HIV-1 transcription; test: Inhibition of Tat-induced HIV-1 transcription in Ad-Tat-infected CEM GFP reporter cells; format: cell-based; conditions: for inhibition of HIV-1 transcription in CEM cells: CEM T-cells, 1H4-based library, in words
Procedure: as §4

Molecule	inhibition of Tat-induced HIV-1 transcription in 293T cells [1]	IC50 [5] [µM]	inhibition of HIV-1 replication [8]	IC50 [8] [µM]	IC50 [9] [µM]	also measured
COc1ccc(C(CNC(=O)CN2CCc3ccccc3C2)c2c[nH]c3ccccc23)cc1 (centres unmarked) [E06]	inhibitory					
COc1ccc(C(CNC(=O)CN2CCc3ccccc3C2)c2c[nH]c3ccccc23)cc1 (centres unmarked) [1H4]		8	inhibited HIV-1 replication	9.4	4.7	inhibition of HIV-1 replication [2]: inhibited HIV-1 replication; effect on the activity of CDK2 [3]: did not have a significant effect; cytotoxicity (FIG. 1A) [4]: not toxic; inhibition of HIV-1 transcription (FIG. 1A) [6]: inhibited HIV-1 transcription; effect on Tat-mediated inhibition of PP1 [7]: relieved Tat-mediated inhibition of PP1; IC50 ([1]; Human immunodeficiency virus 1, HEK-293T, read-out: Transcription inh. in 293T cells (IC-50)): 5 µM
COc1ccc(C(CNC(=O)CN2CCc3ccccc3C2)c2c[nH]c3ccccc23)cc1 (centres unmarked) [1E07]	inhibited HIV-1 transcription	3.2	inhibited HIV-1 replication	2.5	1.5	toxicity in the propidium iodide uptake assay [10]: not toxic; inhibition of HIV-1 transcription in CEM cells [11]: inhibited HIV-1 transcription
COc1ccc(C(CNC(=O)CN2CCc3ccccc3C2)c2c[nH]c3ccccc23)cc1 (centres unmarked) [1G3, reference compound]		59		37	42	induction of HIV-1 replication ([2]; MT4 cells (FIG. 2)): about 2 fold; inhibition of HIV-1 replication [2]: did not inhibit HIV-1 replication; cytotoxicity (FIG. 1A) [4]: neither inhibitory nor toxic; inhibition of HIV-1 transcription (FIG. 1A) [6]: neither inhibitory nor toxic; effect on Tat-mediated inhibition of PP1 [7]: did not affect Tat-mediated inhibition of PP1
COc1ccc(C(CNC(=O)CN2CCc3ccccc3C2)c2c[nH]c3ccccc23)cc1 (centres unmarked) [2F02]	inhibited HIV-1 transcription					inhibition of HIV-1 transcription in CEM cells [11]: inhibited HIV-1 transcription
CC(OC(=O)c1c2c(nc3ccccc13)/C(=C/c1ccc(Cl)cc1)CC2)C(=O)NC(N)=O (centres unmarked)						inhibition of HIV-1 transcription ([11]; cell line not stated, appeared to increase the rate of transcription instead): ineffective for inhibition of HIV-1 transcription
COc1ccc(C(CNC(=O)CN2CCc3ccccc3C2)c2c[nH]c3ccccc23)cc1 (centres unmarked) [B03]	inhibitory		not inhibitory			
Tat: HIV-1 Tat protein that binds to the RVxF pocket of PP1 (protein, UniProt P04608 1-86, looked up) Protein Tat: MEPVDPRLEPWKHPGSQPKTACTNCYCKKCCFHCQVCFITKALGISYGRKKRRQRRRAHQNSQTHQASLSKQPTSQPRGDPTGPKE						inhibition of PP1 ([7]; excess of Tat protein, 4 nM PP1 (FIG. 3A)): inhibited PP1
